Experimental findings from patent US20260132132A1, “3A,4,5,6-TETRAHYDRO-1 H-PYRAZOLO[3,4-C]PYRIDIN-7(7AH)-ONE DERIVATIVES AS FACTOR XIIA INHIBITORS” (KALVISTA PHARMACEUTICALS LIMITED, priority 2022, published 2026) are described below.

In one assay the target is FXa (Homo sapiens, UniProt P00742). As to the kind of experiment: Related protease inhibition: FXa, fluorogenic substrate. The note with it: fluorogenic substrate at Km, 25° C.; H1-H3 = % activity at 40 μM. The format is biochemical. The protocol: Human serine protease enzyme Plasma Kallikrein, KLK1, FXa, Plasmin, Thrombin and Trypsin were assayed for enzymatic activity using an appropriate fluorogenic substrate at Km concentration, FXIa at fixed substrate concentration of 100 μM and various concentrations of the test compound.
Sequence of FXa (P00742 235-488 limits assumed): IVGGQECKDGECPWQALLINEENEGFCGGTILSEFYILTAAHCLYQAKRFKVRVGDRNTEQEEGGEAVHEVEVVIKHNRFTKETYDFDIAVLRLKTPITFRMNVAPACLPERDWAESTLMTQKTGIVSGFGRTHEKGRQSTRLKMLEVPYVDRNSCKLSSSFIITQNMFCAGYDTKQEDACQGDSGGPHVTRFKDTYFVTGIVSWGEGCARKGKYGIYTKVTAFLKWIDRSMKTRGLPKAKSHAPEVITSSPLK
Sequence of FXa (P00742 41-179 partner limits assumed): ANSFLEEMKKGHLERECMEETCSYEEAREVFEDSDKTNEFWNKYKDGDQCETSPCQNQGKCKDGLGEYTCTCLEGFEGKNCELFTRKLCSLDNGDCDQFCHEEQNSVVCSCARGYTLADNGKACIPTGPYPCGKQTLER

Assay [1] addresses T1, Human Factor XIIa (hFXIIa) (Homo sapiens, UniProt P00748).
T1 construct: purchased Enzyme Research Laboratories
T1 sequence (P00748 373-615 limits assumed): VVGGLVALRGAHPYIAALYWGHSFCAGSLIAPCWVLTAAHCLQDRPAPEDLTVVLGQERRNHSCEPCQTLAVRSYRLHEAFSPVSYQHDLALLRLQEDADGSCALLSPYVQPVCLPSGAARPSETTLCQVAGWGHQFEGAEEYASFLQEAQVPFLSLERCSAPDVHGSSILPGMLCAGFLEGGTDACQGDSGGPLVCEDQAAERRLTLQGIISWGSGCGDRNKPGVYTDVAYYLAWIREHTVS
T1 sequence (P00748 20-372 partner limits assumed): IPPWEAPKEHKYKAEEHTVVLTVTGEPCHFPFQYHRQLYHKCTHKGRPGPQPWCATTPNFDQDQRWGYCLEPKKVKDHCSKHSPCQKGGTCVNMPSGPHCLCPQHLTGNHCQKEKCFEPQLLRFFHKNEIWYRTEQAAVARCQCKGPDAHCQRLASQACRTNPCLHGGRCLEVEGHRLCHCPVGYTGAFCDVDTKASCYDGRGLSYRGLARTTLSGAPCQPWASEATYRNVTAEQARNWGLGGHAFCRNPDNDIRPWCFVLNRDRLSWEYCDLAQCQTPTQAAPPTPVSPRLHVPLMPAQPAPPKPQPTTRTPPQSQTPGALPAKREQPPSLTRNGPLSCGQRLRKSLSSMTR
As to the kind of experiment: Determination of Human Factor XIIa (hFXIIa) inhibition, fluorogenic substrate IC50 assay. The format is biochemical. The note with it: fluorogenic substrate H-DPro-Phe-Arg-AFC at Km, 25° C., read-out: Human FXIIa IC50. The protocol:
Determination of Human Factor XIIa (hFXIIa) inhibition
The Km for the cleavage of the substrate by hFXIIa was determined by standard transformation of the Michaelis-Menten equation, with subsequent inhibition assays performed at substrate Km concentration.

What is called IC50 is the concentration needed to halve the response being measured.

On to `CCN1CCc2ccc(N3CCc4c(C(=O)NCc5nn(C)cc5C)nn(-c5cccc(Cl)c5)c4C3=O)cc2C1=O` [Example 1224, 1-(3-chlorophenyl)-N-((1,4-dimethyl-1H-pyrazol-3-yl)methyl)-6-(2-ethyl-1-oxo-1,2,3,4-tetrahydroisoquinolin-7-yl)-7-oxo-4,5,6,7-tetrahydro-1H-pyrazolo[3,4-c]pyridine-3-carboxamide], for which the concentration for half-maximal inhibition (IC50) against FXa was more than 40 µM; in assay [1] it was 100 to 300 nM.

As to `Cc1cn(C)nc1CNC(=O)c1nn(-c2cccc(Cl)c2)c2c1CCN(c1ccc3c(c1)C(=O)N(C)CC3)C2=O` [Example 1225, 1-(3-chlorophenyl)-N-((1,4-dimethyl-1H-pyrazol-3-yl)methyl)-6-(2-methyl-1-oxo-1,2,3,4-tetrahydroisoquinolin-7-yl)-7-oxo-4,5,6,7-tetrahydro-1H-pyrazolo[3,4-c]pyridine-3-carboxamide], the 50% inhibitory concentration (IC50) against FXa fell in the range of 10 to 40 µM; in assay [1] it was 100 to 300 nM.

On to `COc1cc(N2CCc3c(C(=O)NCC4CC4)nn(-c4cccc(Cl)c4)c3C2=O)cc2c1CCN(CCO)C2` [Example 1226, 1-(3-chlorophenyl)-N-(cyclopropylmethyl)-6-(2-(2-hydroxyethyl)-5-methoxy-1,2,3,4-tetrahydroisoquinolin-7-yl)-7-oxo-4,5,6,7-tetrahydro-1H-pyrazolo[3,4-c]pyridine-3-carboxamide], for which the IC50 was more than 40 µM against FXa and 100 to 300 nM in assay [1].

For the compound `Cc1cc(CNC(=O)c2nn(-c3cccc(Cl)c3)c3c2CCN(c2cc4c(nn2)CCN(CCO)C4)C3=O)nn1C` [Example 1227, 1-(3-chlorophenyl)-N-((1,5-dimethyl-1H-pyrazol-3-yl)methyl)-6-(6-(2-hydroxyethyl)-5,6,7,8-tetrahydropyrido[4,3-c]pyridazin-3-yl)-7-oxo-4,5,6,7-tetrahydro-1H-pyrazolo[3,4-c]pyridine-3-carboxamide], the half-inhibitory concentration (IC50) on FXa fell in the range of 10 to 40 µM; in assay [1] it was 100 to 300 nM.

As to `COc1cccnc1CNC(=O)c1nn(-c2cccc(Cl)c2)c2c1CCN(c1cc3c(nn1)CCN(CCO)C3)C2=O` [Example 1229, 1-(3-chlorophenyl)-6-(6-(2-hydroxyethyl)-5,6,7,8-tetrahydropyrido[4,3-c]pyridazin-3-yl)-N-((3-methoxypyridin-2-yl)methyl)-7-oxo-4,5,6,7-tetrahydro-1H-pyrazolo[3,4-c]pyridine-3-carboxamide], the values for the IC50 (against FXa; in assay [1]) were 10 to 40 µM and 100 to 300 nM, respectively.

As for `COc1ccnc(CNC(=O)c2nn(-c3cccc(Cl)c3)c3c2CCN(c2ccc4c(c2)CN(CCO)CC4)C3=O)c1` [Example 1230, 1-(3-chlorophenyl)-6-(2-(2-hydroxyethyl)-1,2,3,4-tetrahydroisoquinolin-7-yl)-N-((4-methoxypyridin-2-yl)methyl)-7-oxo-4,5,6,7-tetrahydro-1H-pyrazolo[3,4-c]pyridine-3-carboxamide], the IC50 at FXa is 10 to 40 µM; in assay [1], 10 to 100 nM.

On to `CN1CCc2ccc(N3CCc4c(C(=O)NCc5cc(C6CC6)n[nH]5)nn(-c5cccc(Cl)c5)c4C3=O)cc2C1=O` [Example 1231, 1-(3-chlorophenyl)-N-((3-cyclopropyl-1H-pyrazol-5-yl)methyl)-6-(2-methyl-1-oxo-1,2,3,4-tetrahydroisoquinolin-7-yl)-7-oxo-4,5,6,7-tetrahydro-1H-pyrazolo[3,4-c]pyridine-3-carboxamide], for which the IC50 is more than 40 µM against FXa and 100 to 300 nM in assay [1].

For `O=C(O)c1nn(-c2cccc(Cl)c2)c2c1CCN(c1cccc(CN3CCCCC3)c1)C2=O` [Example 1232, 1-(3-chlorophenyl)-7-oxo-6-(3-(piperidin-1-ylmethyl)phenyl)-4,5,6,7-tetrahydro-1H-pyrazolo[3,4-c]pyridine-3-carboxylic acid], the IC50 was more than 40 µM on FXa and 1000 to 3000 nM in assay [1].
